In patent US4206226A (priority 1978, dated 1980):
Where “and” joins values, the source holds several entries; their conditions need not be identical. Equal entries are not always repeated.

Tests used:
[1] = system: adenocarcinoma of the stomach, pancreas, and large bowel; details: combined FU and radiation vs radiation therapy alone, patients; cited from earlier work
L1210 leukemia [2] = assay: Combination chemotherapy of advanced L1210 leukemia, cure rate (greater than 60-day survival); format: in vivo, mice; details: at least 1000 mg/kg
Protocol: Compound Pt-307 was administered usually in a dosage regimen of 5-60 mg/kg of body weight. This was given as a single dose or on Days 1, 5, and 9 in the standard National Institutes of Health 10-day testing.
CY was utilized at an optimum 50 mg/kg of body weight (range 25-75 mg/kg ) preferably given at Day 3 in the 10-day testing. 5-FU was utilized at 75 mg/kg of body weight (range 50-100 mg/kg) at Day 3. HU was used in a high dosage of at least 1000 mg/kg of body weight (range 1000-1500 mg/kg). The 5-FU and the HU were utilized as ternary compositions only with cyclophosphamide and the platinum compound.
Hydroxyurea is utilized in combination therapy at a high dosage of at least 1000 mg/kg of body weight (range 1000-1500 mg/kg).

L1210 cells = assay: In vitro growth inhibition of L1210 cells; format: cell-based, murine; details: growth inhibition by 50 percent
Excerpt: (§1) The ID50 refers to the concentration of test compound required to
(§2) inhibit the growth of either the L1210 or L1210/DDP (NSC119875) resistant

[3] = system: L1210/DDP (NSC119875) resistant cells; assay: In vitro growth inhibition of L1210/DDP (NSC119875 resistant) cells; format: cell-based, murine; details: growth inhibition by 50 percent
Excerpt: as §1, §2

P388 leukemia = assay: In vivo activity against P388 leukemia; parameters: species or system murine; details: Days 1,5,9,13, NSC-119875 6.7 mg/kg, NSC-271674 20.0 mg/kg; for Survival (Days), P388: control 13.3 days
Excerpt: (§3) Data are expressed as survival in days and as a percentage increase in […]

P388/DDP leukemia = assay: In vivo activity against P388/DDP leukemia with acquired resistance to NSC-119875; parameters: species or system murine; details: for % ILS, P388/DDP / Survival (Days), P388/DDP: Days 1,5,9,13, NSC-119875 6.7 mg/kg, NSC-271674 20.0 mg/kg; for Survival (Days), P388/DDP: control 11.0 days
Excerpt: P388/DDP refers to a tumor line with acquired resistance to NSC119875.
as §3

B16 melanoma = assay: Panel of mouse tumors: B16 melanoma, survival time assay; format: in vivo; details: ip tumor, D1-9 ip
Protocol: (§4) *Survival time (mean or median) assay
(§5) **Tumor weight inhibition assay.
(§6) Data are expressed as a percentage of the survival time in days or the
(§7) tumor weights in mg of the treated mice divided by the corresponding
(§8) values for the control mice. All testing was performed using both platinu
(§9) compounds in the same experiment. The criteria for activity are as
(§10) follows: confirmed activity (activity from two separate laboratories) of
(§11) % T/C of 150 or more for survival systems and 10% or less for tumor weigh
(§12) inhibition assays. Lower levels of activity such as a % T/C of 125 for
(§13) survival systems and 42% for tumor weight inhibition assays are considere
(§14) statistically significant.

L1210 = assay: Panel of mouse tumors: L1210, survival time assay; format: in vivo; details: ip tumor, D1-9 ip
Protocol: as §4, §6, §7, §8, §9, §10, §11, §12, §13, §14

Lewis lung = assay: Panel of mouse tumors: Lewis lung, survival time assay; format: in vivo; details: iv tumor, D1-9 ip
Protocol: as §4, §6, §7, §8, §9, §10, §11, §12, §13, §14

CD8Fl mammary = assay: Panel of mouse tumors: CD8Fl mammary, tumor weight inhibition assay; format: in vivo; details: sc tumor, Q7DX5 ip
Protocol: as §5, §6, §7, §8, §9, §10, §11, §12, §13, §14

Colon #38 = assay: Panel of mouse tumors: Colon #38, tumor weight inhibition assay; format: in vivo; details: sc tumor, D2,9 ip
Protocol: as §5, §6, §7, §8, §9, §10, §11, §12, §13, §14

[4] = Renal Toxicity Screening Protocol, toxicity compared to NSC-119875; format: in vivo; details: for Body Weight Loss / Clinical Chemistry - Blood Urea Nitrogen / Clinical Chemistry - Creatinine / Clinical Chemistry - Serum Glutamic Pyruvic Transaminase / Hematology - Hematocrit / Hematology - White Blood Cell / Histopathology - Gastrointestinal / Histopathology - Hematopoietic / Histopathology - Lymphatic / Histopathology - Renal: score relative to NSC119875; for TOTAL SCORE: sum of ten parameter scores
L1210 leukemia [5] = assay: L1210 leukemia in BDF1 mice, treatment (ip) on Day 1 only, % increase in life span; format: in vivo
Protocol: The compound in 1% NaHCO3 solution was tested against the L1210 leukemia in BDF1 mice [10^6 cells given to mice on Day 0, treatment (ip) on Day 1 only] in laboratory and the following % increases in life span (%ILS) were noted: […]

L1210 leukemia [6] = assay: Delayed (Day 3) treatment of L1210 leukemia, compound singly and in combination regimen; format: in vivo, BDF1 mice; details: for >60 day survivors: Day 3
Protocol: The compound in 1% NaHCO3 solution was tested against the L1210 leukemia in BDF1 mice [10^6 cells given to mice on Day 0, treatment (ip) on Day 1 only] in laboratory and the following % increases in life span (%ILS) were noted:
The compound singly and in combination regimen
When treatment was delayed until Day 3, 5 mg/kg gave 51% ILS, 42% ILS and 39% ILS in three experiments.

Approximate LD50 = format: in vivo; details: mice
L1210 leukemia [7] = assay: Second screener, L1210 leukemia, day 1, 5, 9 schedule; format: in vivo, mice; details: 6.25 mg/kg
Excerpt: The compound was submitted to the Drug Development Branch of the National Cancer Institute and assigned NSC Number 271674. It was screened against the L1210 leukemia on a day 1, 5, 9 schedule and the following results were obtained:

murine leukemia L1210 = assay: Antileukemic activity in mice against murine leukemia L1210 (general statement); format: in vivo
Excerpt: Some previous platinum chelate compounds show dosage limitation due to renal impairment but the free carboxyl of the present composition offers a possible route of oral […] and absorption by the stomach.

[8] = first line, optimal dose (mg/kg/inj): NSC-119875 2, NSC-271674 6.25
[9] = second line, optimal dose (mg/kg/inj): NSC-119875 1, NSC-271674 1.56
[10] = first line, optimal dose (mg/kg/inj): NSC-119875 2, NSC-271674 0.78
[11] = second line, optimal dose (mg/kg/inj): NSC-119875 2, NSC-271674 1.56
[12] = first line, optimal dose (mg/kg/inj): NSC-119875 2, NSC-271674 3.12
[13] = second line, optimal dose (mg/kg/inj): NSC-119875 2, NSC-271674 6.25
[14] = first line, optimal dose (mg/kg/inj): NSC-119875 8, NSC-271674 6.25
[15] = second line, optimal dose (mg/kg/inj): NSC-119875 8, NSC-271674 25
[16] = first line, optimal dose (mg/kg/inj): NSC-119875 8, NSC-271674 12.5
[17] = second line, optimal dose (mg/kg/inj): NSC-119875 16, NSC-271674 50

## O=c1[nH]cc(F)c(=O)[nH]1 [5-fluorouracil]
[1]
  mean survival times: significantly increased

## NC(=O)NO [Hydroxyurea, hydroxyurea]
L1210 leukemia [2]
  effectiveness when used alone: only minimally effective

## N.N.[Cl][Pt][Cl] [NSC-119875, Cis-dichlorodiamino platinum II]
L1210 cells
  ID50 L1210: 0.05 µg/mL
[3]
  ID50 L1210/DDP: 2.50 µg/mL
P388 leukemia
  % ILS, P388: 145%
  Survival (Days), P388: 32.6 days
P388/DDP leukemia
  % ILS, P388/DDP: 41%
  Survival (Days), P388/DDP: 15.5 days
B16 melanoma; [8]
  % T/C (survival time): 193%
B16 melanoma; [9]
  % T/C (survival time): 166%
L1210; [10]
  % T/C (survival time): 151%
L1210; [11]
  % T/C (survival time): 182%
Lewis lung; [12]
  % T/C (survival time): 135%
Lewis lung; [13]
  % T/C (survival time): 177%
CD8Fl mammary; [14]
  % T/C (tumor weight): 0%
CD8Fl mammary; [15]
  % T/C (tumor weight): 0%
Colon #38; [16]
  % T/C (tumor weight): 42%
Colon #38; [17]
  % T/C (tumor weight): 11%

## N.N.O=C([O-])C1(C(=O)[O-])CCC1.[Pt+2] [NSC-241240, diamine[1,1cyclobutanedicarboxylato (2)-0,0']platinum]
[4]
  Body Weight Loss: 1
  Clinical Chemistry - Blood Urea Nitrogen: 1
  Clinical Chemistry - Creatinine: 1
  Clinical Chemistry - Serum Glutamic Pyruvic Transaminase: 3
  Hematology - Hematocrit: 4
  Hematology - White Blood Cell: 3
  Histopathology - Gastrointestinal: 1
  Histopathology - Hematopoietic: 5
  Histopathology - Lymphatic: 1
  Histopathology - Renal: 1
  TOTAL SCORE: 21

## NC1CCCCC1N.O=S(=O)([O-])[O-].[Pt+2] (centres unmarked) [NSC-250427, sulfato(1,2diaminocyclohexane)platinum (II)]
[4]
  Body Weight Loss: 2
  Clinical Chemistry - Blood Urea Nitrogen: 1
  Clinical Chemistry - Creatinine: 1
  Clinical Chemistry - Serum Glutamic Pyruvic Transaminase: 5
  Hematology - Hematocrit: 3
  Hematology - White Blood Cell: 3
  Histopathology - Gastrointestinal: 1
  Histopathology - Hematopoietic: 4
  Histopathology - Lymphatic: 2
  Histopathology - Renal: 2
  TOTAL SCORE: 24

## CC(C)N.CC(C)N.[Cl-].[Cl-].[OH-].[OH-].[Pt] [NSC-256927, bisisopropylamine-cis-dichloro-trans-dihydroxy platinum (IV)]
[4]
  Body Weight Loss: 2
  Clinical Chemistry - Blood Urea Nitrogen: 1
  Clinical Chemistry - Creatinine: 1
  Clinical Chemistry - Serum Glutamic Pyruvic Transaminase: 3
  Hematology - Hematocrit: 4
  Hematology - White Blood Cell: 3
  Histopathology - Gastrointestinal: 1
  Histopathology - Hematopoietic: 4
  Histopathology - Lymphatic: 4
  Histopathology - Renal: 2
  TOTAL SCORE: 25

## N[C@@H]1CCCC[C@H]1N.O=C([O-])c1ccc(C(=O)[O-])c(C(=O)[O-])c1.[H+].[Pt+2] [NSC-271674, 4-Carboxyphthalato(1,2-diaminocyclohexane)platinum(II)]
L1210 leukemia [5]; 5 mg/kg ip
  % increases in life span (% ILS): 70%
L1210 leukemia [5]; 10 mg/kg ip
  % increases in life span (% ILS): 118%
L1210 leukemia [5]; 20 mg/kg ip
  % increases in life span (% ILS): 119%
L1210 leukemia [5]; 25 mg/kg ip
  % increases in life span (% ILS): 139%
L1210 leukemia [5]; 40 mg/kg ip
  % increases in life span (% ILS): 232%
L1210 leukemia [5]; 50 mg/kg ip
  % increases in life span (% ILS): 288%
L1210 leukemia [5]; 60 mg/kg ip
  % increases in life span (% ILS): 174%
L1210 leukemia [6]; 5 mg/kg alone, Day 3 treatment, three experiments
  % ILS: 51% and 42% and 39%
L1210 leukemia [6]; 5 mg/kg with cyclophosphamide (50 mg/kg) and 5-fluorouracil (75 mg/kg)
  >60 day survivors: 8 of 10
L1210 leukemia [6]; 5 mg/kg with cyclophosphamide (50 mg/kg), two experiments
  >60 day survivors: 3 of 10 and no >60 day survivors
Approximate LD50
  approximate LD50: ~75 mg/kg
L1210 leukemia [7]
  questionably toxic deaths: 2
L1210 cells
  ID50 L1210: 0.30 µg/mL
[3]
  ID50 L1210/DDP: 0.23 µg/mL
P388 leukemia
  % ILS, P388: 56%
  Survival (Days), P388: 20.7 days
P388/DDP leukemia
  % ILS, P388/DDP: 201%
  Survival (Days), P388/DDP: 33.3 days
P388/DDP leukemia; murine leukemia strains
  activity against strains of murine leukemia wherein NSC 119875 has exhausted its activity: appears to be active
B16 melanoma; [8]
  % T/C (survival time): 171%
B16 melanoma; [9]
  % T/C (survival time): 159%
L1210; [10]
  % T/C (survival time): 174%
L1210; [11]
  % T/C (survival time): 325%
Lewis lung; [12]
  % T/C (survival time): 122%
Lewis lung; [13]
  % T/C (survival time): 127%
CD8Fl mammary; [14]
  % T/C (tumor weight): 11%
CD8Fl mammary; [15]
  % T/C (tumor weight): 25%
Colon #38; [16]
  % T/C (tumor weight): 50%
Colon #38; [17]
  % T/C (tumor weight): 33%
[4]; against NSC 119875
  testing for renal toxicity: superior results
[4]
  Body Weight Loss: 3
  Clinical Chemistry - Blood Urea Nitrogen: 1
  Clinical Chemistry - Creatinine: 1
  Clinical Chemistry - Serum Glutamic Pyruvic Transaminase: 3
  Hematology - Hematocrit: 3
  Hematology - White Blood Cell: 3
  Histopathology - Gastrointestinal: 1
  Histopathology - Hematopoietic: 5
  Histopathology - Lymphatic: 1
  Histopathology - Renal: 2
  TOTAL SCORE: 23
Murine leukemia L1210; CY 50 mg/kg
  potentiation in a treatment with cyclophosphamide: is potentiated
Murine leukemia L1210; mice, L1210
  antileukemic activity: has shown antileukemic activity
  effective dosages: 5-60 mg/kg of body weight
